This note sets out measurements from patent US11236354B2, “Glyphosate-n-acetyltransferase (GLYAT) sequences and methods of use” (PIONEER HI-BRED INTERNATIONAL, INC., priority 2013, dated 2022).

The structures appear in SMILES notation.

Assay in all cases: Substrate saturation kinetic analysis of purified GLYAT
In assay [1] the target is GLYAT high specificity variant SEQ ID NO:29 (derived from SEQ ID NO:1 and 2; C29I, F31Y; motif VIMYETDLL, SEQ ID NO:174) (Bacillus licheniformis, UniProt Q65LG7). In kind it is biochemical. Here is the method: E. coli cultures in LB or 2×YT were grown overnight at 37° C. to saturation. The cells were used as a 2% inoculum into fresh media. When OD reached 0.6, IPTG was added to 0.2 mM and growth was continued for at least 6 hours. Cells were harvested by centrifugation and stored at −80° C. Cells were lysed with BPER (Pierce) containing 1 mM dithiothreitol, 0.2 mg/ml lysozyme, 2 mg/ml protease inhibitor cocktail (Sigma bacterial cell cocktail, P8465) and endonuclease. […] Purity as evaluated by polyacrylamide gel electrophoresis was deemed consistently high enough to be assumed to be 100%. Protein concentration was determined with the Bradford assay using a large-scale lot of produced GLYAT protein as standard.
Kinetic parameters for various substrates were obtained using a range of seven substrate concentrations plus a blank containing none of the varied substrate. […] Absorbance was monitored for one minute with a Spectramax 384 Plus plate reader (Molecular Devices). If the amino acid present at position 30 (29 if alanine is absent at position 2) was cysteine, absorbance was monitored at 235 nm, which directly detects cleavage of the sulfoester bond of acetyl CoA. […]

Assay [2] addresses GLYAT (glyphosate-N-acetyltransferase), parent of saturation mutagenesis (already fit protein), SEQ ID NO:26 (derived from SEQ ID NO:1 and 2) (Bacillus licheniformis, UniProt Q65LG7, A28V/C29I/D131E/E14D/E65Q/E67K/E68K/E83D/G37R/I132T/I135A/I15L/I19V/I53V/I91V/K101R/K144R/K58Q/L105M/L26I/L97I/M75V/R47G/R92K/T89S/V114A/Y130F/Y45F). The class given is biochemical. Here is the method: E. coli cultures in LB or 2×YT were grown overnight at 37° C. to saturation. The cells were used as a 2% inoculum into fresh media. When OD reached 0.6, IPTG was added to 0.2 mM and growth was continued for at least 6 hours. Cells were harvested by centrifugation and stored at −80° C. Cells were lysed with BPER (Pierce) containing 1 mM dithiothreitol, 0.2 mg/ml lysozyme, 2 mg/ml protease inhibitor cocktail (Sigma bacterial cell cocktail, P8465) and endonuclease. Lysate supernatants were passed through a column of NHS-activated Agarose (Thermo, #26197) derivatized with coenzyme A. Columns were washed with 25 mM Hepes, pH 7, containing progressively higher concentrations of KCl, then eluted with 25 mM Hepes, 100 mM KCl, 10% ethylene glycol and 1 mM acetyl CoA. Purity as evaluated by polyacrylamide gel electrophoresis was deemed consistently high enough to be assumed to be 100%. Protein concentration was determined with the Bradford assay using a large-scale lot of produced GLYAT protein as standard.
Kinetic parameters for various substrates were obtained using a range of seven substrate concentrations plus a blank containing none of the varied substrate. The non-varied substrate was present at a saturating concentration. Six-microliter aliquots of 50-fold concentrated stock solutions of the varied substrate were placed in a 96-well assay plate (Greiner BioOne UV-Star). Reactions were started with the addition of 294 ul of 25 mM Hepes, pH 7.0, 100 mM KCL, 10% ethylene glycol, the non-varied substrate and 10 to 200 nM enzyme. Absorbance was monitored for one minute with a Spectramax 384 Plus plate reader (Molecular Devices). If the amino acid present at position 30 (29 if alanine is absent at position 2) was cysteine, absorbance was monitored at 235 nm, which directly detects cleavage of the sulfoester bond of acetyl CoA. If the amino acid present at position 30 (29 if alanine is absent at position 2) was isoleucine, 0.5 mM 5,5′-dithiobis-(2-nitrobenzoic acid), which reacts with the coenzyme A thiol generated in the enzyme catalyzed reaction, was included in the reaction mix and absorbance was monitored at 412 nm. Initial rates were processed by the Softmax software to obtain kinetic parameters, using the double-reciprocal transformation.
The sequences with the new substitutions were derived through a combination of saturation mutagenesis of an already fit protein (SEQ ID NO:26) and an effective screening cascade as a means of identifying the improved genes (Examples 1-2). Regions in which novel changes are concentrated include helix H2a (positions 23 and 25-29) and the hairpin formed by strands B6 and B7 (positions 124-144). These two structures are components of the amino substrate binding site. Helix H3, the backbone to which the central beta sheet is anchored, is a region where 24% of the novel substitutions (17 out of 71) disclosed in Table 4 are concentrated into 11% of the positions (16 out of 146). None of those are near enough to the active site to influence substrate specificity directly. In three cases, multiple novel substitutions were discovered immediately or nearly adjacent to conserved amino acids shown previously to contribute to the catalytic mechanism (Siehl D L et. al., J Biol Chem, 282:11446, 2007). The catalytic amino acids for which this is the case are R21, R111, H138 and the nearby positions with multiple substitutions are 23, 112 and 137. The diverse amino acids at these positions may influence the orientation of the neighboring catalytic amino acids so as to selectively optimize catalysis with the preferred substrate, glyphosate.

For assay [3], the target named is GLYAT (glyphosate-N-acetyltransferase), parent, SEQ ID NO:2 (Bacillus licheniformis, UniProt Q65LG7, A28V/D131E/E119K/E63D/E65Q/E67Q/E68K/E83D/E96Q/G37R/I132T/I135V/I15L/I2L/K101R/K144R/K58Q/L105M/L97I/R18K/T89S/V114A/Y130F/Y45F). The settings on record: pH 7.0.
Assay [4] has as its target GLYAT variant SEQ ID NO:6 (derived from SEQ ID NO:1 and 2) (Bacillus licheniformis, UniProt Q65LG7, A28V/D131E/E119K/E14D/E65Q/E67K/E68K/G37R/I132T/I135A/I15L/I19V/I53V/I91V/K101R/K144R/K58Q/L105M/L106I/L26I/L36T/L97I/M75A/R47G/R92K/T89S/V114A/V4I/Y130F/Y45F/Y46C). The settings on record: pH 7.0.
Assay [5] addresses GLYAT variant SEQ ID NO:9 (derived from SEQ ID NO:1 and 2) (Bacillus licheniformis, UniProt Q65LG7, A28V/D131E/E119K/E14D/E65Q/E67K/E68K/G37R/G38S/I132T/I135A/I15L/I19V/I53V/I91V/K101R/K144R/K58Q/L105M/L26I/L97I/M75V/R47G/R92K/T89S/V114A/Y130F/Y45F). The settings on record: pH 7.0.
[6] abbreviates: pH 7.0, non-varied substrate saturating.

`N[C@@H](CC(=O)O)C(=O)O` [aspartate]: the “activity with aspartate (kcat/Km)” value in assay [1] (25 mM Hepes, pH 7.0) was determined as 8 M⁻¹ s⁻¹. Moreover, the “kcat/Km asp, % glyph” value in assay [1] (Table 5, ratio of kcat/Km asp to kcat/Km glyph) stood at 0.013%. Further, the “Asp as % of glyph (kcat/KM asp / kcat/KM glyph)” value in assay [2] (pH 7.0) turned out to be 0.038%; in assay [3], 0.574%; in assay [4], 0.052%; in assay [5], 0.073%. Further, in assay [2] (setting [6]), the “kcat (aspartate)” value amounted to 1.5 s⁻¹. Moreover, in assay [2] (setting [6]), the “kcat/KM (aspartate)” value was 16 M⁻¹ s⁻¹.
